Laboratory results taken from patent US20180064730A1 (priority 2014, published 2018).
Several values for one entry are separate records, joined by “and”; a condition that tells them apart may be missing. Equal entries are not always repeated. Entries after “also recorded” stand apart in the source; their conditions may differ. Where two headings read alike, the source gives them in different places.

Assays:
[1] = tested on: IL-8 secretion from CF lung epithelial cells; experiment: Suppression of constitutive IL-8 secretion from CF lung epithelial cells; type: cell-based, human; conditions: for IC50: constitutive IL-8 hypersecretion, read-out: K50 (concentration causing a 50% reduction of IL-8 secretion)
From the text: Analysis of cardiac glycoside activities identifies a structure-activity-relationship for IL-8 suppression. […] Using all the data we were also able to derive a structure-activity relationship (see Table 1). Briefly, suppression of IL-8 secretion from CF lung epithelial cells is optimally promoted by the presence of glycosyl moieties at the 3-position of the cholesterol nucleus, and by the absence of oxygen-containing substitutions at or near the 12-position on the C ring. Activity declines when glycosyl moieties are absent from the 3-position, and when oxygen-containing substitutions are made at or near the 12-position on the C ring. […] We therefore give the equatorial 12-position and its neighbors crucial negative pharmacophoric importance, and glycosidic substitution at the 3-position positive pharmacophoric importance for the control of IL-8 secretion from CF lung epithelial cells.
(§1) Previously published data had implicated a dysfunctional TNFα/NFκB signaling pathway as responsible for the pro-inflammatory phenotype of the CF lung. […] (46 Srivastava et al, 2004) (47 Yang Q, et al, 2005).

[2] = tested on: control patients / heart failure patients; conditions: cited from earlier work
[3] = tested on: Wuhan influenza virus induced lung inflammation; experiment: Rodent influenza lung inflammation model, lung cytokines/chemokines by ELISA; type: in vivo, cotton rat
Description: Applicant previously conducted a study on a mammal, a rodent with induced lung inflammation from Wuhan influenza virus.
Lung tissue was harvested on day 7, and assayed in terms of pg/ml for iFN-Gamma, GRO/KC, MTP-2, TNF-ALPHA, IL-1B, MCP-1. TGF-Beta, and GM-CSF. Rodents lack IL-8, and instead have GRO/KC and MIP-2.
Methods: The assays for different cytokines and chemokines were performed with commercial micro-sandwich ELISA assays. (Searchlight System, Pierce-Thermo). The results shown are for 22 patients, including 14 females and 8 males.

[4] = tested on: TNFα/NFκB signaling pathway; experiment: Reverse Phase Protein Microarray of IB3-1 and CFTR-repaired IB3-1/S9 cells; type: cell-based, human; conditions: ID90 concentrations; IB3-1 and IB3-1/S9 cells
From the text: as §1

CF patients = experiment: Phase II clinical trial of digitoxin in cystic fibrosis: adverse events; conditions: for Pulm, upper_resp adverse events (cases) / Dermatolog adverse events / Gastrointestinal adverse events / General adverse events / Musculoskel adverse events / Neurological adverse events / Reproductive adverse events / Total (all) adverse events (cases): 28 days, n = 8; for Incidence Rate, all adverse events / Incidence Rate, pulmonary adverse events: person-time 224
Description: Experiment# 1.1. Study design and methods: The study was a randomized, double-blind, placebo controlled, repeat dosing escalation trial. Adults 18-45 years of age with a diagnosis of CF and meet Inclusion/exclusion criteria were selected for the trial. The 24 evaluable patients were studied at a single site, and randomized with respect to drug treatment and placebo at a ratio of 2:1, respectively. Screening included a 24 hour Holter monitor to screen for possible for baseline dysrhythmias. […] Dosing was once a day for 28 days with 8 patients in each group.
The inclusion criteria included (i) male or female, 18 to 45 years of age; (ii) confirmed diagnosis of CF by sweat test (a sweat chloride concentration≧60 meq/L), and a genotype consistent with a CF diagnosis; (iii) FEV 1, % PRED≧40%; (iv) clinically stable with no evidence of acute upper respiratory or lower respiratory tract infection or current pulmonary exacerbation; (v) ability to perform spirometry; (vi) weight≧45 kg at screening and at visit #1 (dosing).
During this period, subjects were not taking macrolide antibiotics.

[5] = molecular target: T1, TNF-alpha-activated TNFR and TRADD (Homo sapiens, UniProt P19438+Q15628); experiment: Interaction between TNF-alpha-activated TNFR and TRADD
T1 sequence (Q15628 1-312): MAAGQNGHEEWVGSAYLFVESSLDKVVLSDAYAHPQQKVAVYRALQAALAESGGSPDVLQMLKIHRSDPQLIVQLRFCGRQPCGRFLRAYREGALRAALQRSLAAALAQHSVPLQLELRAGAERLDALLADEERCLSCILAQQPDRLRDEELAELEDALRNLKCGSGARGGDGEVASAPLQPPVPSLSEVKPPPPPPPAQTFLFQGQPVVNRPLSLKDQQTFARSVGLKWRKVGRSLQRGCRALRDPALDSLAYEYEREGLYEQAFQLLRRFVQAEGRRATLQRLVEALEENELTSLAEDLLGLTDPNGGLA
T1 sequence (P19438 22-455 limits assumed): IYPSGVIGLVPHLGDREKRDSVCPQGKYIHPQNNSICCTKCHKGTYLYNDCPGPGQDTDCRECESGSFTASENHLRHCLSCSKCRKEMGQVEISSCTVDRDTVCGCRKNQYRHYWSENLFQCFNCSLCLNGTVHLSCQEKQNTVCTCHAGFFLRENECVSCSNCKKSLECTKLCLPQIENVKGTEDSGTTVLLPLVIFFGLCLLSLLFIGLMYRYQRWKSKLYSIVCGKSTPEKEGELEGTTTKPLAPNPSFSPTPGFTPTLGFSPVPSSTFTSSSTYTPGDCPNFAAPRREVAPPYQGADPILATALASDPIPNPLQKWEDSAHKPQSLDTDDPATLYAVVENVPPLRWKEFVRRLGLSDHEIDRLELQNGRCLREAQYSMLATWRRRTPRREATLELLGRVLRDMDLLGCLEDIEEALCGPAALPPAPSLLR
From the text: Increased expression of TRADD is associated with a greater rate of decline in CF lung function. […] Trend-lines are based on data for female CF patients, who make up the majority of the patients.

[6] = cited from earlier work
[7] = tested on: TNFalpha-activated NFκB activation and IL-8 expression; conditions: CF airway epithelial cells; cited from earlier work
CF children = conditions: CF vs control children; cited from earlier work
[8] = 3, 10 and 30 mg/kg daily, lung harvested day 7

CO[C@H]1C[C@H](O[C@H]2CC[C@@]3(C)[C@H](CC[C@@H]4[C@@H]3CC[C@]3(C)[C@@H](C5=CC(=O)OC5)[C@@H](OC(C)=O)C[C@]43O)C2)O[C@@H](C)[C@@H]1O [Oleandrin]
IC50 ([1]; Homo sapiens, Epithelial cell): 2 nM

Digitoxigenin 3,12-diAc
activity for suppression of IL-8 secretion [1]: Activity is altogether lost

C[C@H]1O[C@@H](O[C@H]2[C@@H](O)C[C@H](O[C@H]3[C@@H](O)C[C@H](O[C@H]4CC[C@@]5(C)[C@H](CC[C@@H]6[C@@H]5CC[C@]5(C)[C@@H](C7=CC(=O)OC7)CC[C@]65O)C4)O[C@@H]3C)O[C@@H]2C)C[C@H](O)[C@@H]1O [Digitoxin]
incidence of adverse events vs digoxin ([2]; U.S. 1995-1998 retrospective, heart failure patients): approximately three-fold lower incidence
side effects ([2]; control patients, ca. 30 nM in the circulation): only modest, or in many cases, undetectable side effects
GRO/KC in lung tissue [3, 8]: significant reductions; also recorded: suppressed
IFN-gamma in lung tissue [3, 8]: significant reductions
IL-1B in lung tissue [3, 8]: No significant changes
MCP-1 in lung tissue [3, 8]: significant reductions
MIP-2 in lung tissue [3, 8]: significant reductions; also recorded: suppressed
TGF-B in lung tissue [3, 8]: No significant changes
TNF-alpha in lung tissue [3, 8]: significant reductions; also recorded: reduced
lung inflammation in rodent model ([3]; experimental model of lung inflammation): profound, dose-dependent reduction
CF-related constitutive phosphorylation of IKBα [4]: significantly blocked
CF-related constitutive phosphorylation of NFκB,p65 [4]: significantly blocked
phosphorylation of IKKα [4]: somewhat suppressed
Pulm, upper_resp adverse events (cases) (CF patients; 0.05 mg by mouth daily): 9
Dermatolog adverse events (CF patients; 0.05 mg daily): 0
Gastrointestinal adverse events (CF patients; 0.05 mg daily): 5
General adverse events (CF patients; 0.05 mg daily): 3
Musculoskel adverse events (CF patients; 0.05 mg daily): 2
Neurological adverse events (CF patients; 0.05 mg daily): 8
Reproductive adverse events (CF patients; 0.05 mg daily): 1
Total (all) adverse events (cases) (CF patients; 0.05 mg daily): 29
Incidence Rate, all adverse events (CF patients; 0.05 mg daily): 0.1295
Incidence Rate, pulmonary adverse events (CF patients; 0.05 mg daily): 0.04018
Inc. rate diff., all adverse events (CF patients; 0.05 mg vs placebo): −0.008929
Inc. rate diff., pulmonary adverse events (CF patients; 0.05 mg vs placebo): −0.008929
Prev. frac. pop, all adverse events (CF patients; 0.05 mg vs placebo): 0.03571
Prev. frac. pop, pulmonary adverse events (CF patients; 0.05 mg vs placebo): 0.09091
prev. frac. ex., all adverse events (CF patients; 0.05 mg vs placebo): 0.06897
prev. frac. ex., pulmonary adverse events (CF patients; 0.05 mg vs placebo): 0.1818
reduction in pulmonary, upper respiratory adverse events, significance (CF patients; 0.05 mg/day vs placebo): not statistically significant
Pulm, upper_resp adverse events (cases) (CF patients; 0.10 mg by mouth daily): 2
Dermatolog adverse events (CF patients; 0.10 mg daily): 1
Gastrointestinal adverse events (CF patients; 0.10 mg daily): 5
General adverse events (CF patients; 0.10 mg daily): 3
Musculoskel adverse events (CF patients; 0.10 mg daily): 1
Neurological adverse events (CF patients; 0.10 mg daily): 2
Reproductive adverse events (CF patients; 0.10 mg daily): 0
Total (all) adverse events (cases) (CF patients; 0.10 mg daily): 15
Incidence Rate, all adverse events (CF patients; 0.10 mg daily): 0.06696-3 and 0.06696
Incidence Rate, pulmonary adverse events (CF patients; 0.10 mg daily): 0.008929
Inc. rate diff., all adverse events (CF patients; 0.10 mg vs 0.05 mg): −0.0625
Inc. rate diff., pulmonary adverse events (CF patients; 0.10 mg vs 0.05 mg): −0.03125
Prev. frac. pop, all adverse events (CF patients; 0.10 mg vs 0.05 mg): 0.2414
Prev. frac. pop, pulmonary adverse events (CF patients; 0.10 mg vs 0.05 mg): 0.3889
prev. frac. ex., all adverse events (CF patients; 0.10 mg vs 0.05 mg): 0.4828
prev. frac. ex., pulmonary adverse events (CF patients; 0.10 mg vs 0.05 mg): 0.7778
Inc. rate diff., all adverse events (CF patients; 0.10 mg vs placebo): −0.05357
Inc. rate diff., pulmonary adverse events (CF patients; 0.10 mg vs placebo): −0.04018.
Prev. frac. pop, all adverse events (CF patients; 0.10 mg vs placebo): 0.2222
Prev. frac. pop, pulmonary adverse events (CF patients; 0.10 mg vs placebo): 0.4091
prev. frac. ex., all adverse events (CF patients; 0.10 mg vs placebo): 0.4444
prev. frac. ex., pulmonary adverse events (CF patients; 0.10 mg vs placebo): 0.8182
reduction in pulmonary, upper respiratory adverse events, significance (CF patients; 0.10 mg/day (high dose) vs 0.05 mg/day (low dose)): statistically significant
reduction in pulmonary, upper respiratory adverse events, significance (CF patients; 0.10 mg/day vs placebo): statistically significant
serious adverse events (CF patients; clinical trial in CF patients): no serious adverse events
interaction between TNF-alpha-activated TNFR and TRADD [5]: blocks
bioavailable ([6]; given by mouth): 100%
bound to blood and tissue proteins ([6]; human, in vivo): 90%
IC50 ([1]; Homo sapiens, Epithelial cell): ~0.9 nM
TNFalpha-activated NFκB activation and IL-8 expression [7]: blocks

C[C@]12CC[C@H](O)C[C@H]1CC[C@@H]1[C@@H]2CC[C@]2(C)[C@@H](C3=CC(=O)OC3)CC[C@]12O [Digitoxigenin]
IC50 ([1]; Homo sapiens, Epithelial cell): 73.6 nM

C[C@@H]1O[C@@H](O[C@H]2C[C@@H](O)[C@]3(CO)[C@H]4[C@H](O)C[C@]5(C)[C@@H](C6=CC(=O)OC6)CC[C@]5(O)[C@@H]4CC[C@]3(O)C2)[C@H](O)[C@H](O)[C@H]1O [Ouabain]
IC50 ([1]; Homo sapiens, Epithelial cell): 7.9 nM

C[C@]12CC[C@H](O)C[C@H]1CC[C@@H]1[C@@H]2C[C@@H](O)[C@]2(C)[C@@H](C3=CC(=O)OC3)CC[C@]12O [Digoxigenin]
IC50 ([1]; Homo sapiens, Epithelial cell): 34.1 nM

C[C@H]1O[C@@H](O[C@H]2[C@@H](O)C[C@H](O[C@H]3[C@@H](O)C[C@H](O[C@H]4CC[C@@]5(C)[C@H](CC[C@@H]6[C@@H]5C[C@@H](O)[C@]5(C)[C@@H](C7=CC(=O)OC7)CC[C@]65O)C4)O[C@@H]3C)O[C@@H]2C)C[C@H](O)[C@@H]1O [Digoxin]
IC50 ([1]; Homo sapiens, Epithelial cell): 27 nM
IC50 [1]: 27.1 nM
exercise capacity or exercising cardiac function (CF children): no difference

CC(=O)O[C@H]1CC[C@]2(C=O)[C@H]3CC[C@]4(C)[C@@H](C5=CC(=O)OC5)CC[C@]4(O)[C@@H]3CC[C@]2(O)C1 [Acetyl Strophanthidin]
IC50 [1]: 117 nM
